Data taken from patent US20120014956A1, “METHODS AND COMPOSITIONS FOR PREDICTING RESPONSIVENESS TO TREATMENT WITH TNF-ALPHA INHIBITOR” (priority 2010, published 2012).

System: patients with early RA
Experiment: OPTIMA genetic substudy: ACR20/50/70 response at Week 26
Format: in vivo, human
Conditions: for ACR50, % / ACR50, n/N: 26 weeks; for ACR20 Response Rates at Week 26 (title; column head ACR70), % subjects / ACR20 Response Rates at Week 26 (title; column head ACR70), n/N subjects: Table 6a; for ACR20 Response Rates at Week 26 (title; column head ACR70), % subjects / ACR20 Response Rates at Week 26 (title; column head ACR70), n/N subjects / ACR50 response rate, % subjects / ACR50 response, n/N subjects / ACR70 response rate, % subjects / ACR70 response, n/N subjects / ACR20 response rate, % subjects / ACR20 response, n/N subjects: Week 26
Source text: The objective of the study was to prospectively analyze the association of 3 genetic risk factors (HLA-DRB1 shared epitope (SE), FcγRIIb, and IL-4R) for severe RA with clinical disease activity after 26 weeks of combination therapy with adalimumab (ADA) and methotrexate (MTX) or MTX monotherapy in a substudy of OPTIMA (A Multicentre, Randomized, Double Period, Double-Blind Study to Determine the Optimal Protocol for Treatment Initiation With Methotrexate and Adalimumab Combination Therapy in Patients With Early Rheumatoid Arthritis).
OPTIMA is an ongoing 78-week study with 26- and 52-week periods. Eligible patients had RA<1 year (1987-revised ACR classification), 28-joint Disease Activity Score (DAS28)>3.2, ≧6 swollen joints […], and ≧8 tender joints (SSJC66≧8). Patients had elevated erythrocyte sedimentation rate (ESR)≧28 mm/h or C-reactive protein (CRP)≧1.5 mg/dL and ≧1 of the following: >1 erosion, rheumatoid-factor positive (RF+), or anti-cyclic citrullinated peptide antibody positive (anti-CCP+). Exclusion criteria included prior exposure to systemic anti-TNF therapies, treatment with MTX or >2 disease-modifying anti-rheumatic drugs (DMARDs), other acute inflammatory joint diseases, or steroidal or surgical treatment within 4 weeks or 2 months, respectively.
In Period 2, those combination therapy responders, e.g., meeting DAS28 low disease activity (LDA) criteria (DAS28<3.2), were re-randomized 1:1 to remain on ADA+MTX or to “step down” to PBO+MTX for Weeks 26-78. In the initial PBO+MTX monotherapy group, subjects who achieved DAS28 LDA after Period 1 remained blinded on PBO+MTX for Period 2. […] Genetic data were associated with Week-26 clinical response.
For clinical assessment, the percentage of subjects achieving a 20%, 50%, and 70% improvement from baseline ACR scores was determined after Week 26 using a non-responder imputation approach. DAS28(CRP)^1 scores were evaluated at Week 26. The proportion of subjects achieving LDA (DAS28<3.2) and remission criteria (DAS28<2.6) was determined using a non-responder imputation approach.
For statistical analyses, Allele distribution between treatment groups was evaluated using the chi-square test, or Fisher's exact test in cases where data were sparse. The chi-square test was used to compare the proportion of subject achieving ACR20/50/70 and DAS28 LDA (<3.2) or remission (<2.6) within and between treatment groups.
MTX-naïve patients were randomized 1:1 to ADA (40 mg eow)+MTX (titrated to 20 mg/wk by Week 8) or placebo (PBO)+MTX for the first 26 weeks.
The percentage of subjects achieving a 50% improvement in the ACR score from baseline was determined at Week 26 using a non-responder imputation approach. The percentage of subjects achieving DAS28(CRP) remission (DAS28<2.6) was determined at Week 26 using a non-responder imputation approach.
Allele distribution between treatment groups was evaluated using the chi-square test, or Fisher's exact test in cases where data were sparse. Multivariate logistic regression was used to evaluate the effect of treatment, individual alleles, the interaction between treatment and genetic components, and baseline demographics and disease characteristics on clinical responses at 26 weeks.
MTX-naïve pts ≧18 years old with RA<1 year and active disease (DAS28>3.2, ESR≧28 mm/h or CRP≧1.5 mg/dL), and either >1 erosions, RF+, or anti-CCP+ were randomized to ADA+MTX (N=515) or PBO+MTX (N=517) for 26 wks. This analysis presents clinical outcomes at 26 weeks by HLA-DRB1 SE copy number (0×, 1×, or 2×), IL-4R I50V (AA, AG, or GG), and FcγRIIb I232T (TT, TC, CC) alleles. Non-responder imputation was used to calculate the percent of patients achieving ACR20/50/70 and DAS28 low disease activity (LDA, DAS28<3.2) and remission (DAS28<2.6). Multiple logistic regression was used to assess the influence of potential confounding baseline variables. […]

[1] = HLA-DRB1 SE 0 copies, non-responder imputation

## CN(Cc1cnc2nc(N)nc(N)c2n1)c1ccc(C(=O)N[C@@H](CCC(=O)O)C(=O)O)cc1 [PBO + MTX, methotrexate]
IL-4R AA, HLA-DRB1 SE copy # 0
  ACR50, %: (44%)
  ACR50, n/N: 15/34
IL-4R AA, HLA-DRB1 SE copy # 1
  ACR50, %: (41%)
  ACR50, n/N: 23/56
IL-4R AA, HLA-DRB1 SE copy # 2
  ACR50, %: (30%)
  ACR50, n/N: 7/23
IL-4R AG, HLA-DRB1 SE copy # 0
  ACR50, %: (42%)
  ACR50, n/N: 33/78
IL-4R AG, HLA-DRB1 SE copy # 1
  ACR50, %: (37%)
  ACR50, n/N: 34/92
IL-4R AG, HLA-DRB1 SE copy # 2
  ACR50, %: (38%)
  ACR50, n/N: 12/32
IL-4R GG, HLA-DRB1 SE copy # 0
  ACR50, %: (47%)
  ACR50, n/N: 18/38
IL-4R GG, HLA-DRB1 SE copy # 1
  ACR50, %: (40%)
  ACR50, n/N: 14/35
IL-4R GG, HLA-DRB1 SE copy # 2
  ACR50, %: (50%)
  ACR50, n/N: 1/2
ADA+MTX: FcγRIIb-CC with ACR70 and DAS28 remission
  association of FcγRIIb with 26-week response, multiple logistic regression: failed to show a significant association
IL-4R alone
  association of IL-4R with 26-week response, multiple logistic regression: failed to show a significant association
PBO+MTX: ACR20 and ACR50, ADA+MTX: ACR20/50/70 and DAS28 LDA
  association of SE copy number with 26-week response, multiple logistic regression: significant negative effect
IL-4R AA
  ACR20 Response Rates at Week 26 (title; column head ACR70), % subjects: (13%)
  ACR20 Response Rates at Week 26 (title; column head ACR70), n/N subjects: 17/130
IL-4R AG
  ACR20 Response Rates at Week 26 (title; column head ACR70), % subjects: (19%)
  ACR20 Response Rates at Week 26 (title; column head ACR70), n/N subjects: 42/233
IL-4R GG
  ACR20 Response Rates at Week 26 (title; column head ACR70), % subjects: (18%)
  ACR20 Response Rates at Week 26 (title; column head ACR70), n/N subjects: 16/88
HLA-DRB1 SE 0 copies
  ACR50 response rate, % subjects: (40%)
  ACR50 response, n/N subjects: 66/167
  ACR70 response rate, % subjects: (19%)
  ACR70 response, n/N subjects: 31/157
HLA-DRB1 SE 0 copies, listed as MTX
  ACR50 response rate, % subjects: 40%
[1]
  ACR20 response rate, % subjects: (63%)
  ACR20 response, n/N subjects: 105/167
HLA-DRB1 SE 1 copy
  ACR20 response rate, % subjects: (54%)
  ACR20 response, n/N subjects: 115/215
  ACR50 response rate, % subjects: (33%)
  ACR50 response, n/N subjects: 71/215
  ACR70 response rate, % subjects: (17%)
  ACR70 response, n/N subjects: 36/215
HLA-DRB1 SE 1 copy, listed as MTX
  ACR50 response rate, % subjects: 33%
HLA-DRB1 SE 2 copies
  ACR20 response rate, % subjects: (52%)
